The IC50 is the concentration that inhibits the measured activity by half. What is called MIC is the lowest concentration that inhibits growth of the organism. By solubility (kinetic) is commonly meant solubility judged after dilution from a stock solution rather than from solid.

The nature of data set [1]: Inhibition of Streptococcus pneumoniae FabK expressed in Escherichia coli BL21 (DE3) using crotonyl-CoA as substrate incubated for 10 mins in presence of NADH by microplate reader assay.
Data set [2] in a line: Inhibition of Clostridioides difficile FabK expressed in Escherichia coli BL21 (DE3) using crotonyl-CoA as substrate incubated for 10 mins in presence of NADH by microplate reader assay.
In the next data set the test system is Clostridioides difficile. The data set is described as follows: Antibacterial activity against Clostridioides difficile R20291 assessed as inhibition of bacterial growth incubated for 24 hrs by broth microdilution method. Type of data set: functional. A general note: Dilution methods test growth across graded concentrations, often in twofold steps.
The nature of data set [3]: Solubility of compound by turbidimetric assay. Type of data set: physicochemical.
A further data set has as its system HCT-116. Put plainly: cells. Type of data set: functional, cell-based. The note with it: Homo sapiens, HCT-116, 48 h.

The structures appear in SMILES notation. Converted amounts (≈) assume the structure as drawn. Where only a bound is given, the exact number is not on record here.

Description for HCT-116: Cytotoxicity against human HCT-116 cells assessed as reduction in cell viability incubated for 48 hrs by resazurin dye based assay

Turning to `O=C(NCc1nc(-c2ccccc2)c[nH]1)Nc1ncc(Sc2ccccc2)s1`, in data set [1], the IC50 was determined as 37 nM.

Regarding `O=C(NCc1ncc(-c2ccccc2)[nH]1)Nc1ncc(Sc2ccccn2)s1`, the IC50 in data set [2] was more than 10000 nM. The MIC with Clostridioides difficile was more than 50 µg/mL.

For the compound `O=C(NCc1ncc(-c2ccc(Br)cc2)[nH]1)Nc1ncc(Sc2ccccn2)s1`, the IC50 in data set [2] is 1230 nM; with HCT-116, more than 100 µg/mL. Besides, in data set [3], the solubility (kinetic) amounted to 80.1 µM (≈ 39 µg/mL). Besides, in the data set with Clostridioides difficile, the minimal inhibitory concentration (MIC) came to 1.56 µg/mL (≈ 3.2 µM).

With `O=C(NCc1nc(-c2ccc(Br)cc2)c[nH]1)Nc1nc2ccc(Cl)cc2s1`, the values for the half-inhibitory concentration (IC50) (in data set [2]; in the data set with HCT-116) were 110 nM and more than 100 µg/mL, respectively. For the same compound, in data set [3], the kinetic solubility is 76.9 µM (≈ 35.6 µg/mL). Moreover, the MIC in the data set on Clostridioides difficile came out at 6.25 µg/mL (≈ 13.5 µM).

For `O=C(NCc1nc(-c2ccc(Br)cc2)c[nH]1)Nc1ncc(Sc2ccc(Cl)cn2)s1`, the IC50 in data set [2] turned out to be 850 nM. Further, the solubility (kinetic) in data set [3] is 59 µM (≈ 30.8 µg/mL). Further, the minimal inhibitory concentration (MIC) in the data set with Clostridioides difficile came out at 3.12 µg/mL (≈ 5.98 µM).

Take `O=C(NCc1nc2ccccc2[nH]1)Nc1ncc(Sc2ccccn2)s1`: the IC50 in data set [2] is more than 10000 nM. Moreover, the MIC in the data set on Clostridioides difficile was more than 50 µg/mL.

On to `CCOc1ccc2nc(NC(=O)NCc3nc(-c4ccc(Br)cc4)c[nH]3)sc2c1`, for which, in data set [2], the IC50 turned out to be 170 nM. In addition, the solubility (kinetic) in data set [3] stood at 79 µM (≈ 37.3 µg/mL). Besides, the MIC in the data set with Clostridioides difficile turned out to be 12.5 µg/mL (≈ 26.5 µM).

As for `O=C(NCc1nc(-c2ccc(Br)cc2)c[nH]1)Nc1ncc(Sc2ccc3ccccc3n2)s1`, the IC50 in data set [2] was 750 nM. In data set [3], this compound had a kinetic solubility of 74.7 µM (≈ 40.1 µg/mL). Further, in the data set with Clostridioides difficile, the MIC is more than 50 µg/mL.

Turning to `O=C(NCc1nc(-c2ccc(Br)cc2)c[nH]1)Nc1ncc(Sc2nc3ccccc3s2)s1`, the IC50 in data set [2] worked out at 420 nM. Besides, the solubility (kinetic) in data set [3] came to 50 µM (≈ 27.2 µg/mL). In addition, in the data set on Clostridioides difficile, the minimal inhibitory concentration (MIC) is more than 50 µg/mL.

As for `O=C(NCc1nc(-c2ccc(Br)cc2)c[nH]1)Nc1ncc(Sc2ccc(C(F)(F)F)cn2)s1`, the half-maximal inhibitory concentration (IC50) is 770 nM in data set [2] and more than 100 µg/mL in the data set on HCT-116. Further, the kinetic solubility in data set [3] was found to be 18.3 µM (≈ 10.2 µg/mL). In addition, in the data set on Clostridioides difficile, the MIC was found to be 3.12 µg/mL (≈ 5.62 µM).

`CS(=O)(=O)c1ccc2nc(NC(=O)NCc3nc(-c4ccc(Br)cc4)c[nH]3)sc2c1`: the IC50 in data set [2] turned out to be 450 nM. In data set [3], this compound came in with a solubility (kinetic) of 44.5 µM (≈ 22.5 µg/mL). In the data set with Clostridioides difficile, the minimum inhibitory concentration (MIC) is more than 100 µg/mL.

`O=C(NCc1nc(-c2ccc(Br)cc2)c[nH]1)Nc1nc2c(F)cc(F)cc2s1`: the 50% inhibitory concentration (IC50) in data set [2] was 4530 nM. For the same compound, the solubility (kinetic) in data set [3] stood at 125 µM (≈ 58 µg/mL). Moreover, the MIC in the data set on Clostridioides difficile worked out at 12.5 µg/mL (≈ 26.9 µM).

For the compound `O=C(NCc1nc(-c2ccc(Br)cc2)c[nH]1)Nc1ncc(Sc2ncccc2C(F)(F)F)s1`, the concentration for half-maximal inhibition (IC50) in data set [2] is 240 nM; in the data set on HCT-116, more than 100 µg/mL. This compound displayed a solubility (kinetic) in data set [3] of 52 µM (≈ 28.9 µg/mL). Further, the minimal inhibitory concentration (MIC) in the data set on Clostridioides difficile was 1.56 µg/mL (≈ 2.81 µM).

With `O=C(NCc1nc2ccccc2c(=O)[nH]1)Nc1ncc(Sc2ccccn2)s1`, the half-inhibitory concentration (IC50) in data set [2] is more than 10000 nM. The MIC with Clostridioides difficile is more than 50 µg/mL.

As to `O=C(NCc1nc(-c2ccc(Br)cc2)c[nH]1)Nc1nc2c(C(F)(F)F)cccc2s1`, the 50% inhibitory concentration (IC50) is more than 10000 nM in data set [2] and more than 100 µg/mL in the data set on HCT-116. Besides, the minimal inhibitory concentration (MIC) in the data set with Clostridioides difficile was 1.56 µg/mL (≈ 3.14 µM).

With `O=C(NCc1nc(-c2ccc(Br)cc2)c[nH]1)Nc1ncc(Sc2ncccn2)s1`, the 50% inhibitory concentration (IC50) is 1020 nM in data set [2] and more than 100 µg/mL in the data set with HCT-116. For the same compound, the solubility (kinetic) in data set [3] was found to be 83.9 µM (≈ 41 µg/mL). For the same compound, the MIC with Clostridioides difficile is 1.56 µg/mL (≈ 3.19 µM).

On to `O=C(NCc1nc(-c2ccc(Br)cc2)c[nH]1)Nc1nc2ccc(Br)cc2s1`, for which the half-maximal inhibitory concentration (IC50) in data set [2] is 340 nM. Moreover, the kinetic solubility in data set [3] turned out to be 31.3 µM (≈ 15.9 µg/mL). Besides, in the data set on Clostridioides difficile, the MIC was 50 µg/mL (≈ 98.6 µM).

Turning to `O=C(NCc1nc(-c2ccc(Br)cc2)c[nH]1)Nc1nc2ccccc2s1`, the half-maximal inhibitory concentration (IC50) in data set [2] came to 1880 nM. This compound also yielded a kinetic solubility in data set [3] of 64.8 µM (≈ 27.8 µg/mL). In addition, the minimum inhibitory concentration (MIC) in the data set on Clostridioides difficile is more than 50 µg/mL.

Regarding `O=C(NCc1nc(-c2ccc(Br)cc2)c[nH]1)Nc1nc2cc(C(F)(F)F)ccc2s1`, the IC50 in data set [2] is more than 10000 nM. Further, in the data set on Clostridioides difficile, the MIC amounted to 3.12 µg/mL (≈ 6.29 µM).

`O=C(NCc1nc(-c2ccc(Br)cc2)c[nH]1)Nc1ncc(Sc2ccc(Br)cc2)s1`: in data set [2], the half-maximal inhibitory concentration (IC50) stood at 530 nM. For the same compound, in data set [3], the kinetic solubility is 63.6 µM (≈ 36 µg/mL). For the same compound, the MIC in the data set with Clostridioides difficile turned out to be 25 µg/mL (≈ 44.2 µM).

For the compound `O=C(NCc1nc(-c2ccc(Br)cc2)c[nH]1)Nc1ncc(Sc2ccccc2)s1`, the concentration for half-maximal inhibition (IC50) in data set [2] stood at 900 nM. Moreover, the minimal inhibitory concentration (MIC) in the data set on Clostridioides difficile turned out to be 1.56 µg/mL (≈ 3.21 µM).

Regarding `O=C(NCc1nc(-c2ccc(Br)cc2)c[nH]1)Nc1nc2cccc(C(F)(F)F)c2s1`, the IC50 in data set [2] is 2810 nM.

Consider `COC(=O)c1ccc2nc(NC(=O)CSc3nc4ccccc4[nH]3)sc2c1`, for which the concentration for half-maximal inhibition (IC50) in data set [2] was determined as 4200 nM; in data set [1], 1800 nM.

Regarding `O=C(NCc1nc(-c2ccc(Br)cc2)c[nH]1)Nc1nc2ccc(F)cc2s1`, the IC50 in data set [2] worked out at 230 nM. This compound also showed a kinetic solubility in data set [3] of 61.3 µM (≈ 27.4 µg/mL).

Turning to `O=C(NCc1nc(-c2ccc(Br)cc2)c[nH]1)Nc1nc2ccc(OC(F)(F)F)cc2s1`, the concentration for half-maximal inhibition (IC50) in data set [2] was 90 nM. Also, in the data set with Clostridioides difficile, the MIC was determined as 12.5 µg/mL (≈ 24.4 µM).

The record behind these values is ChEMBL document CHEMBL5338799, “Synthesis and evaluation of phenylimidazole FabK inhibitors as new Anti-C. Difficile agents” (Bioorg Med Chem, 2023).
